Tests used:
Assay in all cases: NCI-60 panel test
Type in all cases: cell-based
COLO 205 = conditions: Homo sapiens
Description: (§1) FIG. 7. NCI-60 panel test. The effect of AOH1160 on growth of the NCI-60 panel, which consists of 60 cancer cell lines representing 9 major cancer types, was tested in a 5-dose study. Shown are the Log IC50 values determined for each cell line. […] This study was performed by the National Institute of Cancer.
(§2) As observed in FIG. 7, the effect of AOH1160 on growth of the NCI-60 panel, which consists of 60 cancer cell lines representing 9 major cancer types, was tested in a 5-dose study. Shown are the Log IC50 values determined for each cell line.

DU-145 = conditions: Homo sapiens; DU-145, NCI-60 5-dose study
Description: as §1, §2

HCT-116 = conditions: Homo sapiens; HCT-116, NCI-60 5-dose study
Description: as §1, §2

HCT-15 = conditions: Homo sapiens; HCT-15, NCI-60 5-dose study
Description: as §1, §2

HOP-92 = conditions: Homo sapiens; HOP-92, NCI-60 5-dose study
Description: as §1, §2

K-562 = conditions: Homo sapiens, K562; K-562, NCI-60 5-dose study
Description: as §1, §2

KM12 = conditions: Homo sapiens; KM12, NCI-60 5-dose study
Description: as §1, §2

LOX IMVI = conditions: Homo sapiens, NCI-60 5-dose study
Description: as §1, §2

M14 = conditions: Homo sapiens; M14, NCI-60 5-dose study
Description: as §1, §2

MALME-3M = conditions: Homo sapiens, NCI-60 5-dose study
Description: as §1, §2

MCF7 = conditions: Homo sapiens; MCF7, NCI-60 5-dose study
Description: as §1, §2

MDA-MB-231/ATCC = conditions: Homo sapiens, NCI-60 5-dose study
Description: as §1, §2

MDA-MB-468 = conditions: Homo sapiens; MDA-MB-468, NCI-60 5-dose study
Description: as §1, §2

MOLT-4 = conditions: Homo sapiens; MOLT-4, NCI-60 5-dose study
Description: as §1, §2

NCI-H226 = conditions: Homo sapiens; NCI-H226, NCI-60 5-dose study
Description: as §1, §2

NCI-H460 = conditions: Homo sapiens; NCI-H460, NCI-60 5-dose study
Description: as §1, §2

NCI-H522 = conditions: Homo sapiens; NCI-H522, NCI-60 5-dose study
Description: as §1, §2

OVCAR-3 = conditions: Homo sapiens; OVCAR-3, NCI-60 5-dose study
Description: as §1, §2

OVCAR-5 = conditions: Homo sapiens; OVCAR-5, NCI-60 5-dose study
Description: as §1, §2

OVCAR-8 = conditions: Homo sapiens; OVCAR-8, NCI-60 5-dose study
Description: as §1, §2

RXF 393 = conditions: Homo sapiens; RXF 393, NCI-60 5-dose study
Description: as §1, §2

SF-268 = conditions: Homo sapiens
Description: as §1, §2

SF-295 = conditions: Homo sapiens; SF-295, NCI-60 5-dose study
Description: as §1, §2

SF-539 = conditions: Homo sapiens; SF-539, NCI-60 5-dose study
Description: as §1, §2

SK-MEL-28 = conditions: Homo sapiens; SK-MEL-28, NCI-60 5-dose study
Description: as §1, §2

SK-MEL-2 = conditions: Homo sapiens; SK-MEL-2, NCI-60 5-dose study
Description: as §1, §2

SK-MEL-5 = conditions: Homo sapiens; SK-MEL-5, NCI-60 5-dose study
Description: as §1, §2

SNB-19 = conditions: Homo sapiens; SNB-19, NCI-60 5-dose study
Description: as §1, §2

SW-620 = conditions: Homo sapiens; SW-620, NCI-60 5-dose study
Description: as §1, §2

T-47D = conditions: Homo sapiens, T47D, NCI-60 5-dose study
Description: as §1, §2

TK-10 = conditions: Homo sapiens; TK-10, NCI-60 5-dose study
Description: as §1, §2

Row | Structure (SMILES) | GI50 (COLO 205) | GI50 (DU-145) | GI50 (HCT-116) | GI50 (HCT-15) | GI50 (HOP-92) | GI50 (K-562) | GI50 (KM12) | GI50 (LOX IMVI) | GI50 (M14) | GI50 (MCF7) | GI50 (MDA-MB-231/ATCC) | GI50 (MDA-MB-468) | GI50 (MOLT-4) | GI50 (NCI-H226) | GI50 (NCI-H460) | GI50 (NCI-H522) | GI50 (OVCAR-3) | GI50 (OVCAR-5) | GI50 (OVCAR-8) | GI50 (RXF 393) | other results
1 | O=C(CNC(=O)c1cccc2ccccc12)Nc1ccccc1Oc1ccccc1 [AOH1160] | 309 nM | 324 nM | 324 nM | 245 nM | 2240 nM | 70.8 nM | 288 nM | 309 nM | 275 nM | 309 nM | 977 nM | 324 nM | 347 nM | 2190 nM | 331 nM | 151 nM | 191 nM | 525 nM | 316 nM | 186 nM | GI50 (MALME-3M): 10000 nM; GI50 (SF-268): 437 nM; GI50 (SF-295): 251 nM; GI50 (SF-539): 240 nM; GI50 (SK-MEL-28): 813 nM; GI50 (SK-MEL-2): 269 nM; GI50 (SK-MEL-5): 263 nM; GI50 (SNB-19): 457 nM; GI50 (SW-620): 282 nM; GI50 (T-47D): 537 nM; GI50 (TK-10): 617 nM
2 | O=C(CNC(=O)c1cccc2ccccc12)Nc1ccccc1Oc1ccc(O)cc1 [PCNA1] | 794 nM | 1150 nM | 977 nM | 912 nM | 25100 nM | 501 nM | 912 nM | 1740 nM | 692 nM | 851 nM | 3160 nM | 550 nM | 1200 nM | 4790 nM | 977 nM | 851 nM | 741 nM | 6310 nM | 1320 nM | 501 nM | GI50 (SF-268): 3310 nM; GI50 (SF-295): 617 nM; GI50 (SF-539): 692 nM; GI50 (SK-MEL-28): 851 nM; GI50 (SK-MEL-2): 25100 nM; GI50 (SK-MEL-5): 25100 nM; GI50 (SNB-19): 1410 nM; GI50 (SW-620): 912 nM; GI50 (T-47D): 1550 nM; GI50 (TK-10): 17000 nM
3 | O=C(CNC(=O)c1cccc2ccccc12)Nc1ccccc1Oc1cccc(O)c1 [PCNA2] | 14800 nM | 9550 nM | 1380 nM | 3160 nM | 25100 nM | 1050 nM | 2190 nM | 15100 nM | 1550 nM | 4470 nM | 17800 nM | 3550 nM | 4900 nM | 25100 nM | 5750 nM | 1620 nM | 1510 nM | 25100 nM | 11500 nM | 4170 nM | GI50 (MALME-3M): 5890 nM; GI50 (SF-268): 20900 nM; GI50 (SF-295): 2190 nM; GI50 (SF-539): 4070 nM; GI50 (SK-MEL-28): 1860 nM; GI50 (SK-MEL-2): 25100 nM; GI50 (SK-MEL-5): 25100 nM; GI50 (SNB-19): 8710 nM; GI50 (SW-620): 3090 nM; GI50 (T-47D): 9770 nM; GI50 (TK-10): 25100 nM
4 | COc1ccc(Oc2ccccc2NC(=O)CNC(=O)c2cccc3ccccc23)cc1 [PCNA6] | 646 nM | 1020 nM | 617 nM | 589 nM | 25100 nM | 145 nM | 575 nM | 1350 nM | 550 nM | 257 nM | 2240 nM | 457 nM | 955 nM | 4270 nM | 851 nM | 195 nM | 389 nM | 2000 nM | 1150 nM | 490 nM | GI50 (MALME-3M): 25100 nM; GI50 (SF-268): 2040 nM; GI50 (SF-295): 398 nM; GI50 (SF-539): 575 nM; GI50 (SK-MEL-28): 380 nM; GI50 (SK-MEL-2): 2290 nM; GI50 (SK-MEL-5): 25100 nM; GI50 (SNB-19): 1230 nM; GI50 (SW-620): 676 nM; GI50 (T-47D): 2510 nM; GI50 (TK-10): 2140 nM
5 | COc1cccc(Oc2ccccc2NC(=O)CNC(=O)c2cccc3ccccc23)c1 [PCNA7/ AOH1996] | 282 nM | 708 nM | 95.5 nM | 129 nM | 204 nM | 129 nM | 191 nM | 269 nM | 158 nM | 100 nM | 776 nM | 331 nM | 661 nM | 2510 nM | 295 nM | 178 nM | 100 nM | 1120 nM | 692 nM | 166 nM | GI50 (MALME-3M): 17000 nM; GI50 (SF-268): 550 nM; GI50 (SF-295): 112 nM; GI50 (SF-539): 224 nM; GI50 (SK-MEL-28): 4370 nM; GI50 (SK-MEL-2): 182 nM; GI50 (SK-MEL-5): 219 nM; GI50 (SNB-19): 617 nM; GI50 (SW-620): 166 nM; GI50 (T-47D): 138 nM; GI50 (TK-10): 1580 nM

Source: patent US12054447B2, “PCNA inhibitors” (City of Hope, priority 2015, dated 2024)
